Laboratory results from ChEMBL document CHEMBL5212743, “Selectivity Literature for EUbOPEN Chemogenomics Library wave 3” (2023).

Experiments:
[1] = biological target: Receptor-type tyrosine-protein kinase FLT3 (Homo sapiens) (UniProt P36888); test: Selectivity interaction (Kinase panel) EUB0000214b FLT3; conditions: at […]
[2] = biological target: 5-hydroxytryptamine receptor 7 (Homo sapiens, UniProt P34969); test: Selectivity interaction (GPCR panel (PDSP screen)) EUB0000317b HTR7; conditions: at 10 µM
[3] = biological target: Serine/threonine-protein kinase 38-like (Homo sapiens, UniProt Q9Y2H1); test: Selectivity interaction (KinomeScan (DiscoverX)) EUB0000317b STK38L; conditions: at 1 µM
[4] = biological target: SRSF protein kinase 2 (Homo sapiens) (UniProt P78362); test: Selectivity interaction (KinomeScan (DiscoverX)) EUB0000315b SRPK2; conditions: at 1 µM
[5] = biological target: MAP/microtubule affinity-regulating kinase 3 (Homo sapiens) (UniProt P27448); test: Selectivity interaction (KinomeScan (DiscoverX)) EUB0000315b MARK3; conditions: at 1 µM
[6] = test system: Receptor-type tyrosine-protein kinase FLT3 (Homo sapiens), P36888 [UNDEFINED MUTATION]; test: Selectivity interaction (KinomeScan (DiscoverX)) EUB0000315b FLT3; conditions: at 1 µM
[7] = biological target: Phosphatidylinositol 4,5-bisphosphate 3-kinase catalytic subunit beta isoform (Homo sapiens) (UniProt P42338); test: Selectivity interaction (KinomeScan (DiscoverX)) EUB0000014b PIK3CB; conditions: at 1 µM
[8] = biological target: Casein kinase I isoform epsilon (Homo sapiens, UniProt P49674); test: Selectivity interaction (Radioisotope filter binding assay (Reaction Biology)) EUB0000696a CSNK1E; conditions: at 1 µM
[9] = biological target: Serine/threonine-protein kinase PLK4 (Homo sapiens) (UniProt O00444); test: Selectivity interaction (KinomeScan (Ambit)) EUB0000687a PLK4; conditions: at 10 µM
[10] = biological target: Serine/threonine-protein kinase DCLK2 (Homo sapiens) (UniProt Q8N568); test: Selectivity interaction (KinomeScan (Ambit)) EUB0000687a DCLK2; conditions: at 10 µM
[11] = biological target: Epidermal growth factor receptor (Homo sapiens, UniProt P00533); test: Selectivity interaction (KinomeScan (DiscoverX)) EUB0000336a EGFR; conditions: at 1 µM
[12] = biological target: 5-hydroxytryptamine receptor 2B (Homo sapiens, UniProt P41595); test: Selectivity interaction (GPCR panel (PDSP screen)) EUB0000336a HTR2B; conditions: at 1 µM
[13] = biological target: T1, Phosphatidylinositol 5-phosphate 4-kinase type-2 gamma (Homo sapiens) (UniProt Q8TBX8); test: Selectivity interaction (KinomeScan (DiscoverX)) EUB0000336a PIP4K2C; conditions: at 1 µM
T1 sequence (whole entry): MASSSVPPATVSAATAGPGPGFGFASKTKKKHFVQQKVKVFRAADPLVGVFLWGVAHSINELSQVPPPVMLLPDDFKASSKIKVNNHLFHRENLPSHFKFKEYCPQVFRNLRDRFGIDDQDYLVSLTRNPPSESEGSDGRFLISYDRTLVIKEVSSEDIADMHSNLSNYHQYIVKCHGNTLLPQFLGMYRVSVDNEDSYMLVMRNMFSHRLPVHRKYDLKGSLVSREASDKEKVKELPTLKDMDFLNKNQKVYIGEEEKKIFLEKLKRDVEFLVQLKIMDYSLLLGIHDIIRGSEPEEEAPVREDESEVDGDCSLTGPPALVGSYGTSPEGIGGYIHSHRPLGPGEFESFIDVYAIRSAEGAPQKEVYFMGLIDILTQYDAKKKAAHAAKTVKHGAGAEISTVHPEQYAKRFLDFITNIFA

[14] = biological target: Phosphatidylinositol 4,5-bisphosphate 3-kinase catalytic subunit alpha isoform (Homo sapiens, UniProt P42336); test: Selectivity interaction (KinomeScan (DiscoverX)) EUB0000336a PIK3CA; conditions: at 1 µM
[15] = biological target: Serine/threonine-protein kinase Nek5 (Homo sapiens) (UniProt Q6P3R8); test: Selectivity interaction (KinomeScan (DiscoverX)) EUB0000336a NEK5; conditions: at 1 µM
[16] = biological target: Tyrosine-protein kinase receptor Tie-1 (Homo sapiens) (UniProt P35590); test: Selectivity interaction (KinomeScan (DiscoverX)) EUB0000336a TIE1; conditions: at 1 µM
[17] = biological target: cGMP-dependent 3',5'-cyclic phosphodiesterase (Homo sapiens) (UniProt O00408); test: Selectivity interaction (Eurofins CEREP Diversity Profiling (71 receptors, ion channels, and 25 other enzymes)) EUB0000231c PDE2A; conditions: at 10 µM
[18] = biological target: T2, Gamma-aminobutyric acid receptor subunit alpha-1 (Homo sapiens) (UniProt P14867); test: Selectivity interaction (Eurofins CEREP Diversity Profiling (71 receptors, ion channels, and 25 other enzymes)) EUB0000231c GABRA1; conditions: at 10 µM
T2 sequence (whole entry): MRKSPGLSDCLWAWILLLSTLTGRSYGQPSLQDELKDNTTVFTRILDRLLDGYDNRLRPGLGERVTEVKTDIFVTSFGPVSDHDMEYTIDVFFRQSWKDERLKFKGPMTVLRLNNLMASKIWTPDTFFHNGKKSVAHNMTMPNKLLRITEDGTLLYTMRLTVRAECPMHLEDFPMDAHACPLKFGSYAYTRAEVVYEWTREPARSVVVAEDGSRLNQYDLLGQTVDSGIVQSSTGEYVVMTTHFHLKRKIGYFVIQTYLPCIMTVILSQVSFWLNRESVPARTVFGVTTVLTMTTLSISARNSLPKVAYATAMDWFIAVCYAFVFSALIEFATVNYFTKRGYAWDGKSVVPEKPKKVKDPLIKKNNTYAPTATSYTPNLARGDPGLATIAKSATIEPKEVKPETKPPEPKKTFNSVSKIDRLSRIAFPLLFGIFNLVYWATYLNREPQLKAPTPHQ

[19] = biological target: T3, Adenosine receptor A1 (Homo sapiens) (UniProt P30542); test: Selectivity interaction (Eurofins CEREP Diversity Profiling (71 receptors, ion channels, and 25 other enzymes)) EUB0000231c ADORA1; conditions: at 10 µM
T3 sequence (whole entry): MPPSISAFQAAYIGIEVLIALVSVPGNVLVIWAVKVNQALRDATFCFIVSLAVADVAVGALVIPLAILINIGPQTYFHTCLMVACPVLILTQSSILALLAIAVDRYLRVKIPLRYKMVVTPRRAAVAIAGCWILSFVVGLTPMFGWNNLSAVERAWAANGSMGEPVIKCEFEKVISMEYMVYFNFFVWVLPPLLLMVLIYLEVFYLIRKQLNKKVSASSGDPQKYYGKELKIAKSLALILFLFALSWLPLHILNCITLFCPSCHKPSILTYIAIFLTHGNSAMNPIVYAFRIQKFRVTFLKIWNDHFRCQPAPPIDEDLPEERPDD

[20] = biological target: 3',5'-cyclic-AMP phosphodiesterase 4D (Homo sapiens) (UniProt Q08499); test: Selectivity interaction (Eurofins CEREP Diversity Profiling (71 receptors, ion channels, and 25 other enzymes)) EUB0000231c PDE4D; conditions: at 10 µM
[21] = biological target: cGMP-inhibited 3',5'-cyclic phosphodiesterase 3A (Homo sapiens, UniProt Q14432); test: Selectivity interaction (Eurofins CEREP Diversity Profiling (71 receptors, ion channels, and 25 other enzymes)) EUB0000231c PDE3A; conditions: at 10 µM
[22] = biological target: Serine/threonine-protein kinase 17A (Homo sapiens) (UniProt Q9UEE5); test: Selectivity interaction (Kinase panel (ProQinase)) EUB0000631a STK17A; conditions: at 1 µM
[23] = biological target: Mitogen-activated protein kinase kinase kinase 7 (Homo sapiens) (UniProt O43318); test: Selectivity interaction (Dundee panel (140 kinases and 19 lipid kinases)) EUB0000631a MAP3K7; conditions: at 1 µM
[24] = biological target: T4, Mitogen-activated protein kinase 15 (Homo sapiens) (UniProt Q8TD08); test: Selectivity interaction (Dundee panel (140 kinases and 19 lipid kinases)) EUB0000631a MAPK15; conditions: at 1 µM
T4 sequence (whole entry): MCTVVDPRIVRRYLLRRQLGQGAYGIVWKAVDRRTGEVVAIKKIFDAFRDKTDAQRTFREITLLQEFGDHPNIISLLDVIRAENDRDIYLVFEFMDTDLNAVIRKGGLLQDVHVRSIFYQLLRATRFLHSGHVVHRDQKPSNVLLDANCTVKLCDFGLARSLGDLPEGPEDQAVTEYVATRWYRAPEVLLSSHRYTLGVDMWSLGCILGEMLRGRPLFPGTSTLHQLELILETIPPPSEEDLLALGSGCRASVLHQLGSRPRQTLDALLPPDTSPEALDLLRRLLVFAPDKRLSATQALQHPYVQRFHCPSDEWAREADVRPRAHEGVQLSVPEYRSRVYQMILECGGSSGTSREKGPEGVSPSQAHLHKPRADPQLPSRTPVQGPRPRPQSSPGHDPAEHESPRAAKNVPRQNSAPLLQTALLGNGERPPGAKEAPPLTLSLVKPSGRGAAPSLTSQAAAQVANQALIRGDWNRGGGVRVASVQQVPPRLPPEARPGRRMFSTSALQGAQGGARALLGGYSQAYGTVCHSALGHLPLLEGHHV

CREB-binding protein = CREB-binding protein (Homo sapiens, UniProt Q92793); test: Selectivity interaction (Bromodomain panel (DSF assay)) EUB0000330a CREBBP
[25] = biological target: Substance-K receptor (Homo sapiens) (UniProt P21452); test: Selectivity interaction (CEREP panel (ligand receptors, ion channels, transporters)) EUB0000330a TACR2; conditions: at 1 µM
Chain of Substance-K receptor (Homo sapiens) (P21452 whole entry): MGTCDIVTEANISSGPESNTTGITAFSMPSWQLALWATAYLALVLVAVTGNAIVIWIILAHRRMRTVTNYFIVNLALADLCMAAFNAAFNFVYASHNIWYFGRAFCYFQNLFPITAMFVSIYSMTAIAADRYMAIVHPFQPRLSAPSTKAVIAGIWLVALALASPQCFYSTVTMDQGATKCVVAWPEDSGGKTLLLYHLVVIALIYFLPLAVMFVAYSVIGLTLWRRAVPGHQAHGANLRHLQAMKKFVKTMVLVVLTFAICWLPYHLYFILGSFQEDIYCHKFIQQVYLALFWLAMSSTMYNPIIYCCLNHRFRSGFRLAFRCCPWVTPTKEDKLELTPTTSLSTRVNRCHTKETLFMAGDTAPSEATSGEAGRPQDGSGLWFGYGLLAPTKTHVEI

Chain of Serine/threonine-protein kinase Nek5 (Homo sapiens) (Q6P3R8 whole entry): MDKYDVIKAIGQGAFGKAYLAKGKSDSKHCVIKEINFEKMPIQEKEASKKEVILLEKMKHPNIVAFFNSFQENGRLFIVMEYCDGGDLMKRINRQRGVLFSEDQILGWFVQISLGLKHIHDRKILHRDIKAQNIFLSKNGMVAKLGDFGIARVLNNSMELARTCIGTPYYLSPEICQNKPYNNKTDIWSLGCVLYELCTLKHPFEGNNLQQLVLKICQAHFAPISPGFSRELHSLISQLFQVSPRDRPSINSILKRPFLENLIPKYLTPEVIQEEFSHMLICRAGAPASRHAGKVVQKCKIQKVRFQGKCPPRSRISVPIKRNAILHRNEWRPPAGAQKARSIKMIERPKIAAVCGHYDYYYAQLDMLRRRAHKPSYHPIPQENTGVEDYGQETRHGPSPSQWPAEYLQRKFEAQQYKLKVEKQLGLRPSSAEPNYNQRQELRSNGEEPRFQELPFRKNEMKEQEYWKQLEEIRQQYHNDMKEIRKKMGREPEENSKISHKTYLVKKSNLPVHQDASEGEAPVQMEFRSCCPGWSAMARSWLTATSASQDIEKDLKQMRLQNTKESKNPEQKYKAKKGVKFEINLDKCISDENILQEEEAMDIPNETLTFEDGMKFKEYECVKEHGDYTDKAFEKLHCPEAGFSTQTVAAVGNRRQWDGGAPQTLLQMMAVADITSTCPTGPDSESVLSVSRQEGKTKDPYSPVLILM
Chain of Serine/threonine-protein kinase 17A (Homo sapiens) (Q9UEE5 whole entry): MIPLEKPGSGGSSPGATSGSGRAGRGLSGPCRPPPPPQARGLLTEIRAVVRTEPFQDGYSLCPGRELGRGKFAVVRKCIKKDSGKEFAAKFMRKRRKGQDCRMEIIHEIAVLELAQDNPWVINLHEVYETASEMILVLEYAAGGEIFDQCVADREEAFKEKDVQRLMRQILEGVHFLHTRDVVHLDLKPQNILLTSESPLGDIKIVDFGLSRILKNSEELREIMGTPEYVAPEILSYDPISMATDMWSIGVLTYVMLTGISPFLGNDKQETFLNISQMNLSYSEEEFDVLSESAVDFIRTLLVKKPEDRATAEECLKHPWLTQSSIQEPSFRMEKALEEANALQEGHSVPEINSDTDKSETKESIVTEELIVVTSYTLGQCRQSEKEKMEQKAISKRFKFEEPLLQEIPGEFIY
Chain of SRSF protein kinase 2 (Homo sapiens) (P78362 whole entry, looked up): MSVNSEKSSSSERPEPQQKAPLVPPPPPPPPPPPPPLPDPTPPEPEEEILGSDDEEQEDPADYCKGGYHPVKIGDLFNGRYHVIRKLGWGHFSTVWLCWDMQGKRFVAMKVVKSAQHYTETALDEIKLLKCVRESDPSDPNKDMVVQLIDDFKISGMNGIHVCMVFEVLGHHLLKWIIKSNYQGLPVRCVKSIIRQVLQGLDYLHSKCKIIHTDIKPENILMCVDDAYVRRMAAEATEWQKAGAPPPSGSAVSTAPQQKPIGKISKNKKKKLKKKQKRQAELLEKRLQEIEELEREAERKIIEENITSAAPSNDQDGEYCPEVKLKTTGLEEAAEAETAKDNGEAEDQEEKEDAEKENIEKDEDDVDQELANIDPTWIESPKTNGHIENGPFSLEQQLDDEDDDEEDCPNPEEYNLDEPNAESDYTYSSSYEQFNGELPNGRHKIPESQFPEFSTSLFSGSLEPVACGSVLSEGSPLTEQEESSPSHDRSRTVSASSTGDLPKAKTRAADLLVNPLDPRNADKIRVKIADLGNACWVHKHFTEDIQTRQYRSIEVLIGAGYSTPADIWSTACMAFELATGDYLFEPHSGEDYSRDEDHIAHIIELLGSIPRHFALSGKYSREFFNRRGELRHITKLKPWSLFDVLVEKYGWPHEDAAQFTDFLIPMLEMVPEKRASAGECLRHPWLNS
Chain of cGMP-inhibited 3',5'-cyclic phosphodiesterase 3A (Q14432 whole entry): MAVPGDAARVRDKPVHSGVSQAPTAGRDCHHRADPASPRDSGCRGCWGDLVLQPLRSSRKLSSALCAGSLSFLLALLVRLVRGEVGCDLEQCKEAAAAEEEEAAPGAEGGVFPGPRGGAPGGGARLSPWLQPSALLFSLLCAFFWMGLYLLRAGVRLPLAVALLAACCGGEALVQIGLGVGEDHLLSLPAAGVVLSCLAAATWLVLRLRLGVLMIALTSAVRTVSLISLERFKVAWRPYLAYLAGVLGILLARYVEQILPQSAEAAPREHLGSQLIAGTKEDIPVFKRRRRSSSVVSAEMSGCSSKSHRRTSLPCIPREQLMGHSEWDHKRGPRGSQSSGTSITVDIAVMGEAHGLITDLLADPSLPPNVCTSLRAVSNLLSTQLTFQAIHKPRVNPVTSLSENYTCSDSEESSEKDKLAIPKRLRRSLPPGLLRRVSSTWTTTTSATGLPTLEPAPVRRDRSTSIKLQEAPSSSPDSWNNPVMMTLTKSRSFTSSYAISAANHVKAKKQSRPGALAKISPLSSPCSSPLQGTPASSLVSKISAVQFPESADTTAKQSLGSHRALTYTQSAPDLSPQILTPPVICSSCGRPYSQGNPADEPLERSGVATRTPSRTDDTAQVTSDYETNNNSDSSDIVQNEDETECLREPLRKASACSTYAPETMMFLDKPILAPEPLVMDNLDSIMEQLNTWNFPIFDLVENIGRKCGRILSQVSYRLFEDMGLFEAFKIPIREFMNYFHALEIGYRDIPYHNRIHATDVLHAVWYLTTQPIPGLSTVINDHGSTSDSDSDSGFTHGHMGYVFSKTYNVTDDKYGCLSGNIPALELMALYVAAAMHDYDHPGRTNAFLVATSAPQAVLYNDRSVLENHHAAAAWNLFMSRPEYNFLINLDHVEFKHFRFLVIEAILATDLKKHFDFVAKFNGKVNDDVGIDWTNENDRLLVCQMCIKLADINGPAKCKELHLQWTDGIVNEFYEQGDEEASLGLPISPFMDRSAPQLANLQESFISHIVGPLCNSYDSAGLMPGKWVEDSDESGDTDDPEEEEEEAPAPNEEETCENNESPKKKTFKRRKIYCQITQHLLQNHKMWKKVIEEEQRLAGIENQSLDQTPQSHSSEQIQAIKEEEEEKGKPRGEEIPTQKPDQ
Chain of MAP/microtubule affinity-regulating kinase 3 (Homo sapiens) (P27448 whole entry, looked up): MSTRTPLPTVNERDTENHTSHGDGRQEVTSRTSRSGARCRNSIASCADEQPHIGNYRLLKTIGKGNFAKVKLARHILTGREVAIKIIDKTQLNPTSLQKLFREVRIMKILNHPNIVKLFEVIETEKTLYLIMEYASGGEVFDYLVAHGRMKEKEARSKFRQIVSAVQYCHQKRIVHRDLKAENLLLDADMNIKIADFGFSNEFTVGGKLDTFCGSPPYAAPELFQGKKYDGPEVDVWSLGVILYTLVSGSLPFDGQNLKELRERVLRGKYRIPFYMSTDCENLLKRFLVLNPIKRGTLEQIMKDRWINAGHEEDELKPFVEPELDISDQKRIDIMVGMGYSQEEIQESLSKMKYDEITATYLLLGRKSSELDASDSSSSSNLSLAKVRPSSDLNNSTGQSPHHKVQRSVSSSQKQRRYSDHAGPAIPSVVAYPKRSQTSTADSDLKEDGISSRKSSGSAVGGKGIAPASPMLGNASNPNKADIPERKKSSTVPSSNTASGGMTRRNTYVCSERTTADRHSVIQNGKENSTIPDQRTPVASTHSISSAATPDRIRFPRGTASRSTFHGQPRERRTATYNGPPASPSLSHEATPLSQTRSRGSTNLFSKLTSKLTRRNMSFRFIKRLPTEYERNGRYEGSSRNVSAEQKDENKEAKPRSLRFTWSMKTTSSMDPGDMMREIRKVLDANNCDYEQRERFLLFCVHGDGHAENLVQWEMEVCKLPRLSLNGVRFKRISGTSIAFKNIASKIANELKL
Chain of 3',5'-cyclic-AMP phosphodiesterase 4D (Homo sapiens) (Q08499 whole entry): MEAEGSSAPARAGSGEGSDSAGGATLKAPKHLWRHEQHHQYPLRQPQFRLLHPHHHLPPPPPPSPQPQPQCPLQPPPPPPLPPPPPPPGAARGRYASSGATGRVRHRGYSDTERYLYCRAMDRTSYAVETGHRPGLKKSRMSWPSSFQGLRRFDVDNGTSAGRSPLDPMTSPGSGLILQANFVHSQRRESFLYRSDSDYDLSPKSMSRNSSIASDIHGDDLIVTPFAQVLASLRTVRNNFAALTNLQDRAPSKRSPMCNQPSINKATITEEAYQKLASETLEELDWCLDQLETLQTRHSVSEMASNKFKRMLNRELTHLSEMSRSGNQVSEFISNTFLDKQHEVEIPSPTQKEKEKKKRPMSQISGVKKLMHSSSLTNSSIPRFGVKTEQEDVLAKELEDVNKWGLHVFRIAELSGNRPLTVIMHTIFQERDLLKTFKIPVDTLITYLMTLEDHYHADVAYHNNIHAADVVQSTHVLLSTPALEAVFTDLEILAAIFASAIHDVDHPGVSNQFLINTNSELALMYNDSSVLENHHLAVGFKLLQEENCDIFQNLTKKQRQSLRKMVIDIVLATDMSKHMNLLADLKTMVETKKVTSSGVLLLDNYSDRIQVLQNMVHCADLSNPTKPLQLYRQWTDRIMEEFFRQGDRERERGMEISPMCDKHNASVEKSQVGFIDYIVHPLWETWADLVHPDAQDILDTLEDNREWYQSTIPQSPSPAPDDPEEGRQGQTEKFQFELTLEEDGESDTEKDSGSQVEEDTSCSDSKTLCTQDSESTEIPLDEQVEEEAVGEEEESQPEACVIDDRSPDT

`O=C(c1ccc(C(=O)N2CCC(N3CCCC3)CC2)c(Nc2ccccc2)c1)N1CCC(N2CCCC2)CC1` gave a % of control [1] of 64%.
`Cc1cc(-n2nc(Cc3cc(F)cc(C(F)(F)F)c3)nc2C)ccc1C(N)=O` gave an inhibition [2] of 21% and a % of control [3] of 49%.
With `Cn1nc(C(F)(F)F)cc1-c1cnc(N2CCc3cc(S(=O)(=O)Nc4c(F)cc(Cl)cc4F)cc(N4CCCC4=O)c32)nc1` the % of control [4] was 34%, the % of control [5] was 12% and the % of control [6] was 32%.
`Nc1ccc(C(=O)Nc2cccc(-c3nc(N4CCOCC4)c4oc5ncccc5c4n3)c2)cn1` was tested, and the % of control [7] was 9.8%.
In the case of `CC(C)Oc1ccc(-c2nn([C@@H](C)c3oc4ccc(F)cc4c(=O)c3-c3cccc(F)c3)c3ncnc(N)c23)cc1F`, the % of control [8] is reported as 39%.
Work on `CCOc1cc(C(=O)N2CCC(N3CCN(C)CC3)CC2)ccc1Nc1ncc2c(n1)N(C1CCCC1)c1ccccc1C(=O)N2C` yielded a % of control [9] of 5.1% and a % of control [10] of 3.6%.
`Cc1nc(Cc2cccc(C(F)(F)F)c2)sc1-c1ccc(C(N)=O)nc1` was tested, and the % of control [11] was 0%, the % of inhibition [12] was 34% and the % of control [13] was 0.3%. The % of control [14] was 15%, the % of control [15] was 35% and the % of control [16] was 28%.
For `CC(=O)c1cc(-c2cc(C(=O)NC3CC3)ccc2C)c2ncccn12`, the % of control [17] was 25%, the % of control [18] was 47% and the % of control [19] was 14%. The % of control [20] was 28% and the % of control [21] was 48%.
`CC(C)(O)CNc1ncc(-c2ccnc(Nc3ccnc(Cl)c3)n2)c(CC2CC2)n1` showed a % of activity remaining [22] of 45%, a % of activity remaining [23] of 40% and a % of activity remaining [24] of 32%.
Compound `Cc1sc2c(c1C)C(c1ccc(Cl)cc1)=N[C@@H](CC(=O)OC(C)(C)C)c1nnc(C)n1-2` has a dTm (CREB-binding protein) of 1.04 K and a % bound fraction [25] of 48%.
